The results in this text go back to US20230203043A1, “NOVEL IMIDAZOPYRAZINE DERIVATIVES” (Hoffmann-La Roche Inc., priority 2020, published 2023).

Where a name gives a salt, the structure may show the parent alone.

The first test concerns Acinetobacter baumannii ATCC17961. Briefly: Antimicrobial susceptibility testing: 90% growth inhibitory concentration (IC90) determination in Iso-Sensitest broth, OD600 growth. The class given is cell-based. The conditions noted are these: Acinetobacter baumannii, ATCC17961, 16 h, read-out: A. baumannii ATCC 17961 IC90 (uM), strain ATCC 17961, OD600 growth over 16 h. A digest of the protocol:
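Growth inhibition is calculated during the logarithmic phase from OD600 readings taken every 20 minutes across 16 h at 35±2° C. Bacteria at ~5×10^(5) CFU/ml face twofold dilution series (e.g. 50 to 0.097 μM final).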
Turning to `CCc1cc(Nc2nccn3c(-c4cn(CC(F)F)nc4C(F)(F)F)cnc23)ccc1C(=O)NCC(=O)NC1CC(N)C1` (stereo not shown) [Example 642, N-[2-[(3-aminocyclobutyl)amino]-2-oxo-ethyl]-4-[[3-[1-(2,2-difluoroethyl)-3-(trifluoromethyl)pyrazol-4-yl]imidazo[1,2-a]pyrazin-8-yl]amino]-2-ethyl-benzamide formate], the IC90 was 0.232 µM. Still for that read-out and setting: in the case of `N#CCn1cc(-c2cnc3c(Nc4ccc(C(=O)NCC(=O)NCCN)c(Cl)c4)nccn23)c(C(F)(F)F)n1` [Example 119, N-[2-(2-aminoethylamino)-2-oxoethyl]-2-chloro-4-[[3-[1-(cyanomethyl)-3-(trifluoromethyl)pyrazol-4-yl]imidazo[1,2-a]pyrazin-8-yl]amino]benzamide formate] it was 0.476 µM; in that of `O=C(c1ccc(Nc2nccn3c(-c4cn(Cc5cccnn5)nc4C(F)(F)F)cnc23)cc1Cl)N1CCNCC1` [Example 135, [2-chloro-4-[[3-[1-(pyridazin-3-ylmethyl)-3-(trifluoromethyl)pyrazol-4-yl]imidazo[1,2-a]pyrazin-8-yl]amino]phenyl]-piperazin-1-ylmethanone formate], 0.933 µM. On the same count and under the same terms, in the case of `CCc1cc(Nc2nccn3c(-c4cn(CC(O)CCO)nc4C(F)(F)F)cnc23)ccc1C(=O)NCCOCCN` (stereo not shown) [Example 315, N-[2-(2-aminoethoxy)ethyl]-4-[[3-[1-(2,4-dihydroxybutyl)-3-(trifluoromethyl)pyrazol-4-yl]imidazo[1,2-a]pyrazin-8-yl]amino]-2-ethylbenzamide formate] it was 1.46 µM. As to `C[C@@H](NC(=O)c1ccc(Nc2nccn3c(-c4c[nH]nc4C(F)(F)F)cnc23)cc1Cl)C(=O)NCCN(C)C` [Example 98, 2-chloro-N-[(2R)-1-[2-(dimethylamino)ethylamino]-1-oxopropan-2-yl]-4-[[3-[3-(trifluoromethyl)-1H-pyrazol-4-yl]imidazo[1,2-a]pyrazin-8-yl]amino]benzamide formate], the IC90 is 1.94 µM.

As to `C[C@@H](NC(=O)c1ccc(Nc2nccn3c(-c4cn(CC#N)nc4C(F)(F)F)cnc23)cc1Cl)C(=O)N1CCNCC1` [Example 647, 2-chloro-4-[[3-[1-(cyanomethyl)-3-(trifluoromethyl)pyrazol-4-yl]imidazo[1,2-a]pyrazin-8-yl]amino]-N-[(1R)-1-methyl-2-oxo-2-piperazin-1-yl-ethyl]benzamide formate], the IC90 turned out to be 0.244 µM. On the same count and under the same terms, in the case of `Cc1cc(Nc2nccn3c(-c4c[nH]nc4C(F)(F)F)cnc23)ccc1C(=O)NCCCNC(=O)[C@@H]1C[C@@H](O)CN1` [Example 442, formic acid; (2S,4R)-4-hydroxy-N-[3-[[2-methyl-4-[[3-[3-(trifluoromethyl)-1H-pyrazol-4-yl]imidazo[1,2-a]pyrazin-8-yl]amino]benzoyl]amino]propyl]pyrrolidine-2-carboxamide] it was 0.622 µM; in that of `Cc1cc(Nc2nccn3c(-c4cn(CC#N)nc4C(F)(F)F)cnc23)ccc1C(=O)N[C@H](C)C(=O)N1CCC(N)CC1` [Example 690, N-[(1R)-2-(4-amino-1-piperidyl)-1-methyl-2-oxo-ethyl]-4-[[3-[1-(cyanomethyl)-3-(trifluoromethyl)pyrazol-4-yl]imidazo[1,2-a]pyrazin-8-yl]amino]-2-methyl-benzamide formate], 0.351 µM; in that of `NCCN1CCN(C(=O)c2ccc(Nc3nccn4c(-c5c[nH]nc5C(F)(F)F)cnc34)cc2Cl)CC1` [Example 571, (4-(2-aminoethyl)piperazin-1-yl)(2-chloro-4-((3-(3-(trifluoromethyl)-1H-pyrazol-4-yl)imidazo[1,2-a]pyrazin-8-yl)amino)phenyl) methanone formate], 0.192 µM.

The test is the same for the next values; noted with them: Acinetobacter baumannii, ATCC17961, 16 h, strain ATCC 17961, OD600 growth over 16 h, read-out: A. baumannii ATCC 17961 IC90.
In the case of `CCc1cc(Nc2nccn3c(-c4cn(CC(F)F)nc4C(F)F)cnc23)ccc1C(=O)N1CCN(C(=O)[C@@H](C)N)CC1` [Example 777, (R)-2-amino-1-(4-(4-((3-(1-(2,2-difluoroethyl)-3-(difluoromethyl)-1H-pyrazol-4-yl)imidazo[1,2-a]pyrazin-8-yl)amino)-2-ethylbenzoyl)piperazin-1-yl)propan-1-one], the IC90 was found to be 1.02 µM. The same measure, in the same setting: in the case of `CCc1cc(Nc2nccn3c(-c4c[nH]nc4C(F)(F)F)cnc23)ccc1C(=O)NCC1CC1N` (stereo not shown) [Example 776, N-((2-aminocyclopropyl)methyl)-2-ethyl-4-((3-(3-(trifluoromethyl)-1H-pyrazol-4-yl)imidazo [1,2-a]pyrazin-8-yl)amino) benzamide formate] it was 1.01 µM; in that of `CCc1cc(Nc2nccn3c(-c4cn(CC(F)F)nc4C(F)(F)F)cnc23)ccc1C(=O)NCCNC(=O)[C@@H]1C[C@@H](O)CN1` [Example 667, (2S,4R)-N-(2-(4-((3-(1-(2,2-difluoroethyl)-3-(trifluoromethyl)-1H-pyrazol-4-yl)imidazo[1,2-a]pyrazin-8-yl)amino)-2-ethylbenzamido)ethyl)-4-hydroxypyrrolidine-2-carboxamide], 0.294 µM.

With `CCc1cc(Nc2nccn3c(-c4cn(CC(F)F)nc4C#N)cnc23)ccc1C(=O)NCCOCCN` [Example 832, N-(2-(2-aminoethoxy)ethyl)-4-((3-(3-cyano-1-(2,2-difluoroethyl)-1H-pyrazol-4-yl)imidazo[1,2-α]pyrazin-8-yl)amino)-2-ethylbenzamide], the IC90 was 0.48 µM. On the same count and under the same terms, with `NCC(=O)N1CCN(C(=O)c2ccc(Nc3nccn4c(-c5c[nH]nc5C(F)(F)F)cnc34)cc2Cl)CC1` [Example 131, 2-amino-1-[4-[2-chloro-4-[[3-[3-(trifluoromethyl)-1H-pyrazol-4-yl]imidazo[1,2-a]pyrazin-8-yl]amino]benzoyl]piperazin-1-yl]ethanone] the figure was 0.117 µM. With `N#CCn1cc(-c2cnc3c(Nc4ccc(C(=O)N5CCN(C(=O)CN)CC5)c(F)c4)nccn23)c(C(F)(F)F)n1` [Example 813, 2-(4-(8-((3-fluoro-4-(4-glycylpiperazine-1-carbonyl)phenyl)amino)imidazo [1,2-a]pyrazin-3-yl)-3-(trifluoromethyl)-1H-pyrazol-1-yl)acetonitrile hydrochloride], the IC90 turned out to be 0.21 µM. Same read-out and setting: in the case of `CCc1cc(Nc2nccn3c(-c4cn(CCF)nc4C(F)(F)F)cnc23)ccc1C(=O)NCCCN` [Example 56, N-(3-aminopropyl)-2-ethyl-4-[[3-[1-(2-fluoroethyl)-3-(trifluoromethyl)pyrazol-4-yl]imidazo[1,2-a]pyrazin-8-yl]amino]benzamide] it was 0.194 µM; in that of `C=CCn1cc(-c2cnc3c(Nc4cc(C)c(C(=O)N[C@H](C)CN)c(F)c4)nccn23)c(C(F)(F)F)n1` [Example 680, (R)-4-((3-(1-allyl-3-(trifluoromethyl)-1H-pyrazol-4-yl)imidazo[1,2-a]pyrazin-8-yl)amino)-N-(1-aminopropan-2-yl)-2-fluoro-6-methylbenzamide], 0.326 µM. On the same count and under the same terms, with `CCc1cc(Nc2nccn3c(-c4cn(C5CCC5)nc4C(F)(F)F)cnc23)ccc1C(=O)NCCOCCN1CCOCC1` [Example 661, 4-((3-(1-cyclobutyl-3-(trifluoromethyl)-1H-pyrazol-4-yl)imidazo[1,2-a]pyrazin-8-yl)amino)-2-ethyl-N-(2-(2-morpholinoethoxy)ethyl) benzamide formate] the figure was 0.279 µM. Same read-out and setting: in the case of `CNC(=O)c1ccc(Nc2nccn3c(-c4cn(Cc5ccncn5)nc4C(F)(F)F)cnc23)cc1Cl` [Example 281, 2-chloro-N-methyl-4-[[3-[1-(pyrimidin-4-ylmethyl)-3-(trifluoromethyl)pyrazol-4-yl]imidazo[1,2-a]pyrazin-8-yl]amino]benzamide] it was 0.345 µM. Consider `NCCOCCNC(=O)c1ccc(Nc2nccn3c(-c4c[nH]nc4C(F)(F)F)cnc23)cc1Cl` [Example 361, N-[2-(2-aminoethoxy)ethyl]-2-chloro-4-[[3-[3-(trifluoromethyl)-1H-pyrazol-4-yl]imidazo[1,2-a]pyrazin-8-yl]amino]benzamide hydrochloride], for which the 90% effect concentration (IC90) is 0.267 µM. Same read-out and setting: in the case of `Cc1cc(Nc2nccn3c(-c4c[nH]nc4C(F)(F)F)cnc23)ccc1C(=O)N1CCN(C(=O)[C@@H]2CCNC2)CC1` [Example 332, [2-methyl-4-[[3-[3-(trifluoromethyl)-1H-pyrazol-4-yl]imidazo[1,2-a]pyrazin-8-yl]amino]phenyl]-[4-[(3R)-pyrrolidine-3-carbonyl]piperazin-1-yl]methanone] it was 0.509 µM.

On to `CCc1cc(Nc2nccn3c(-c4c[nH]nc4C(F)(F)F)cnc23)ccc1C(=O)NCCCCCCN` [Example 336, N-(6-aminohexyl)-2-ethyl-4-[[3-[3-(trifluoromethyl)-1H-pyrazol-4-yl]imidazo[1,2-a]pyrazin-8-yl]amino]benzamide hydrochloride], for which the IC90 amounted to 0.152 µM. Consider `O=C(CNC(=O)c1ccc(Nc2nccn3c(-c4c[nH]nc4C(F)(F)F)cnc23)cc1Cl)N[C@H]1CCNC1` [Example 125, 2-chloro-N-[2-oxo-2-[[(3S)-pyrrolidin-3-yl]amino]ethyl]-4-[[3-[3-(trifluoromethyl)-1H-pyrazol-4-yl]imidazo[1,2-a]pyrazin-8-yl]amino]benzamide], for which the IC90 was determined as 2.23 µM. On the same count and under the same terms, in the case of `CCc1cc(Nc2nccn3c(-c4c[nH]nc4C(F)(F)F)cnc23)ccc1C(=O)NCC(=O)N1CCNCC1` [Example 753, 2-ethyl-N-(2-oxo-2-piperazin-1-yl-ethyl)-4-[[3-[3-(trifluoromethyl)-1H-pyrazol-4-yl]imidazo[1,2-a]pyrazin-8-yl]amino] benzamide formate] it was 0.659 µM.

The same test, now with this note: strain ATCC 17961, OD600 growth over 16 h, read-out: A. baumannii ATCC 17961 IC90.
On to `NC1CC(NC(=O)N2CCN(C(=O)c3ccc(Nc4nccn5c(-c6c[nH]nc6C(F)(F)F)cnc45)cc3Cl)CC2)C1` (stereo not shown) [Example 265, N-(3-aminocyclobutyl)-4-[2-chloro-4-[[3-[3-(trifluoromethyl)-1H-pyrazol-4-yl]imidazo[1,2-a]pyrazin-8-yl]amino]benzoyl] piperazine-1-carboxamide formate], for which the IC90 turned out to be 0.231 µM.
